This is an account of results in PubChem BioAssay (NCI).

What all share (test): inhibition of tumour cell growth, NCI panel, 48 h
The subject of assay [1] is LOX IMVI melanoma.
The test system of assay [2] is HL-60(TB) leukemia.
The subject of assay [3] is MOLT-4 leukemia.
Assay [4] relates to OVCAR-8 ovarian.
Assay [5] relates to SF-295 CNS.
Assay [6] deals with SW-620 colon.
The test system of assay [7] is OVCAR-5 ovarian.
For assay [8], the system named is SF-268 CNS.
Assay [9] has as its system UACC-62 melanoma.
For assay [10], the system named is SR leukemia.

Each structure is given as a SMILES string.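 Each compound was tested at five concentrations against cells in 96-well plates for 48 hours. GI50: concentration for 50% inhibition of growth. TGI is the concentration that stops growth completely.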 Some results are limits rather than exact numbers.

Turning to `CCN(CCCl)CCCCCNc1c2ccccc2nc2ccc(OC)cc12`, the TGI in [1] amounted to 1.09 µM; in [2], 0.266 µM; in assay [3] it was 0.279 µM; in assay [4], 1.96 µM; in [5], 9.68 µM; in assay [6], 1.63 µM. Further, the figures for the TGI in [7], in [8] and in [9] were 5.39 µM, 5.98 µM and 1.8 µM, respectively.
Take `NCCOCn1cc(Cc2cccc(OCc3ccccc3)c2)c(=O)[nH]c1=O`: the TGI in assay [1], in [2], in assay [3], in [4], in assay [5] and in assay [6] was > 100 µM each time. Further, the TGI in assay [9] was > 100 µM.
On to `CCCN(CCC)CCc1cc(C(C)=O)n(S(=O)(=O)c2ccc(C)cc2)c1`, for which the TGI in assay [3], in [4], in assay [5], in assay [6], in assay [7] and in assay [10] was > 100 µM throughout. Also, the TGI in assay [8] and in assay [9] was > 100 µM throughout.
In the case of `S=c1nc(C(c2ccccc2)c2ccccc2)[nH][nH]1`, the TGI in assay [1], in assay [2], in assay [3], in assay [4], in assay [5] and in assay [6] was > 100 µM in each case. The TGI in assay [7], in [8] and in assay [9] was > 100 µM throughout.
Turning to `O=c1/c(=C/c2c(O)ccc3ccccc23)sc2nc3ccccc3n12`, the TGI in [1], in assay [2], in assay [4], in [5], in [6] and in assay [7] was > 100 µM throughout. In addition, the TGI in [8] and in assay [9] was > 100 µM in each case.
For `COC1=CC(=O)C(Br)=CC1=O`, the TGI in assay [1] amounted to 34.3 µM; in assay [2], 23.6 µM; in assay [3], 10.4 µM; in assay [4] it was 65.8 µM; in assay [6], 54.9 µM; in assay [8], 33.8 µM. The TGI in assay [9] stood at 32.1 µM.
With `Cc1ccc(-c2c(C#N)[n+](=O)c3cc(F)c(F)cc3n2[O-])cc1`, the GI50 in assay [1] was > 100 µM; in assay [3] it was 0.851 µM; in assay [4] it was 20.8 µM; in [5], 2.01 µM; in [6] it was 3.9 µM; in assay [7] it was 3.91 µM. Besides, the GI50 in assay [8] is 14.3 µM; in assay [9] it was 4.25 µM. In addition, the TGI was > 100 µM in [1]; 2.71 µM in assay [3]; 40.3 µM in [4]; 5.27 µM in assay [5]; 16.1 µM in [6]; 15.9 µM in assay [7]. The TGI in [8] turned out to be 30 µM; in assay [9], 16.1 µM.
With `CCC[CH2][Sn]([CH2]CCC)([CH2]CCC)[O]C(=O)C(OC(C)=O)c1ccccc1` (stereo unspecified), the GI50 is 0.107 µM in assay [1]; 0.0539 µM in [3]; 0.167 µM in [4]; 0.163 µM in [5]; 0.141 µM in [6]; 0.086 µM in assay [7]. The GI50 in assay [8] is 0.138 µM; in assay [9], 0.126 µM. The TGI came to 0.23 µM in assay [1]; 0.42 µM in [3]; 0.304 µM in [4]; 0.301 µM in assay [5]; 0.273 µM in [6]; 0.222 µM in assay [7]. The TGI was determined as 0.368 µM in assay [8] and 0.255 µM in assay [9].
On to `C#CCN(N=O)C(=O)NCCCCC(NC(=O)OCc1ccccc1)C(=O)OCc1ccccc1` (stereo unspecified), for which the TGI in assay [1] was 28 µM; in [2], > 100 µM; in assay [3], 50.6 µM; in assay [4], > 100 µM; in [5], > 100 µM; in assay [6], 31.1 µM. The TGI in assay [7] was > 100 µM; in assay [8], 73.5 µM; in assay [9], > 100 µM.
Consider `CCN(CC)CCCOc1ccc2ncnc(Nc3ccc(Oc4cccc(C(F)(F)F)c4)c(Cl)c3)c2c1`, for which the GI50 in [1] is 1.63 µM; in [3], 1.88 µM; in assay [5], 1.73 µM; in [6] it was 1.61 µM; in [7], 1.56 µM; in [10] it was 1.41 µM. Further, the GI50 in [8] was 1.44 µM; in assay [9], 1.76 µM. For the same molecule, the TGI turned out to be 3.06 µM in assay [1]; 4.49 µM in [3]; 3.17 µM in [5]; 3.09 µM in assay [6]; 2.99 µM in assay [7]; 3.76 µM in assay [10]. For the same molecule, the TGI in assay [8] stood at 3.07 µM; in assay [9], 3.22 µM.
As to `Cc1ccc(NC(=O)C(=O)C(C(=O)c2ccc3ccccc3c2)C2OC(=O)c3ccccc32)c(C)c1` (stereo unspecified), the TGI amounted to 32.2 µM in [1]; 23.7 µM in assay [3]; 36.8 µM in assay [4]; 21.6 µM in assay [6]; 36.5 µM in assay [7]; 35.7 µM in assay [8]. The TGI in assay [9] was 17.3 µM.
As for `CCO/C(CCn1[nH]c(=O)c(Cl)c(Cl)c1=O)=N\NC(=O)C(=O)NN`, the TGI in assay [1], in assay [2], in assay [3], in assay [4], in assay [5] and in assay [6] was > 100 µM each time. The TGI in [7], in assay [8] and in [9] was > 100 µM throughout.
